Assay results from the NIST ThermoML archive (doi:10.1021/je060271a).
Where “and” joins values, the source holds several entries; their conditions need not be identical. Equal values may be shown once.

Conditions: 283.15 K, Liquid, Vibrating tube method

CCCCCC(=O)OCC(COC(=O)CCCCC)(COC(=O)CCCCC)COC(=O)CCCCC [pentaerythritol tetrahexanoate]
Conditions	mass density
10919 kPa	1010.4 kg/m3
10934 kPa	1010.4 kg/m3
10949 kPa	1010.4 kg/m3
10966 kPa	1010.5 kg/m3
10983 kPa	1010.4 kg/m3
10998 kPa	1010.5 kg/m3
11013 kPa	1010.5 kg/m3
11028 kPa	1010.6 kg/m3
11046 kPa	1010.5 kg/m3
11060 kPa	1010.6 kg/m3
11075 kPa	1010.4 kg/m3
11093 kPa	1010.5 kg/m3
11108 kPa	1010.6 kg/m3
11126 kPa	1010.6 kg/m3
11141 kPa	1010.5 kg/m3
11157 kPa	1010.6 kg/m3
11173 kPa	1010.6 kg/m3
11191 kPa	1010.5 kg/m3
11206 kPa	1010.6 kg/m3
11221 kPa	1010.5 kg/m3
11237 kPa	1010.6 kg/m3
11256 kPa	1010.5 kg/m3
11271 kPa	1010.6 kg/m3
11289 kPa	1010.8 kg/m3
11304 kPa	1010.6 kg/m3
11320 kPa	1010.7 kg/m3
11339 kPa	1010.7 kg/m3
11355 kPa	1010.7 kg/m3
11370 kPa	1010.6 kg/m3
11387 kPa	1010.7 kg/m3
11406 kPa	1010.7 kg/m3
11422 kPa	1010.7 kg/m3
11438 kPa	1010.7 kg/m3
11457 kPa	1010.8 kg/m3
11473 kPa	1010.8 kg/m3
11492 kPa	1010.7 kg/m3
11508 kPa	1010.8 kg/m3
11524 kPa	1010.8 kg/m3
11541 kPa	1010.7 kg/m3
11560 kPa	1010.8 kg/m3
11577 kPa	1010.7 kg/m3
11593 kPa	1010.8 kg/m3
11613 kPa	1010.9 kg/m3
11630 kPa	1010.7 kg/m3
11649 kPa	1010.9 kg/m3
11682 kPa	1010.8 kg/m3
11753 kPa	1010.9 kg/m3
11773 kPa	1011 kg/m3
11790 kPa	1010.9 kg/m3
11807 kPa	1010.8 kg/m3
11828 kPa	1011 kg/m3
11844 kPa	1010.9 kg/m3
11862 kPa	1010.9 kg/m3
11899 kPa	1011 kg/m3
11916 kPa	1011 kg/m3
11936 kPa	1011.1 kg/m3
11954 kPa	1010.9 kg/m3
11971 kPa	1011 kg/m3
11988 kPa	1011.1 kg/m3
12009 kPa	1011 kg/m3
12027 kPa	1011 kg/m3
12044 kPa	1011 kg/m3
12062 kPa	1011.2 kg/m3
12082 kPa	1011.1 kg/m3
12099 kPa	1011.2 kg/m3
12119 kPa	1011.2 kg/m3
12137 kPa	1011.1 kg/m3
12154 kPa	1011.1 kg/m3
12171 kPa	1011 kg/m3
12192 kPa	1011.2 kg/m3
12209 kPa	1011.1 kg/m3
12231 kPa	1011.3 kg/m3
12249 kPa	1011.2 kg/m3
12267 kPa	1011.2 kg/m3
12290 kPa	1011.1 kg/m3
12309 kPa	1011.2 kg/m3
12310 kPa	1011.2 kg/m3
12311 kPa	1011.2 kg/m3
12312 kPa	1011.2 kg/m3 and 1011.4 kg/m3
12313 kPa	1011.1 kg/m3
12314 kPa	1011.2 kg/m3 and 1011.3 kg/m3
12315 kPa	1011.3 kg/m3
12316 kPa	1011.2 kg/m3
12317 kPa	1011.2 kg/m3
12318 kPa	1011.3 kg/m3 and 1011.2 kg/m3
12319 kPa	1011.4 kg/m3 and 1011.1 kg/m3
12320 kPa	1011.3 kg/m3 and 1011.2 kg/m3
12321 kPa	1011.2 kg/m3
12322 kPa	1011.3 kg/m3 and 1011.2 kg/m3
12323 kPa	1011.3 kg/m3 and 1011.2 kg/m3
12324 kPa	1011.3 kg/m3
12325 kPa	1011.2 kg/m3 and 1011.3 kg/m3
12326 kPa	1011.2 kg/m3 and 1011 kg/m3
12327 kPa	1011.3 kg/m3
12328 kPa	1011.2 kg/m3
12332 kPa	1011.3 kg/m3
12334 kPa	1011.3 kg/m3
12336 kPa	1011.3 kg/m3
12339 kPa	1011.4 kg/m3
12343 kPa	1011.3 kg/m3 and 1011.2 kg/m3
12348 kPa	1011.2 kg/m3
12351 kPa	1011.1 kg/m3
12354 kPa	1011.4 kg/m3
12356 kPa	1011.2 kg/m3
12359 kPa	1011.2 kg/m3
12362 kPa	1011.3 kg/m3
12363 kPa	1011.2 kg/m3
12364 kPa	1011.3 kg/m3
12366 kPa	1011.3 kg/m3
12380 kPa	1011.2 kg/m3
12399 kPa	1011.3 kg/m3
12414 kPa	1011.3 kg/m3
12431 kPa	1011.3 kg/m3
12446 kPa	1011.2 kg/m3
12461 kPa	1011.2 kg/m3
12476 kPa	1011.4 kg/m3
12494 kPa	1011.4 kg/m3
12509 kPa	1011.3 kg/m3
12527 kPa	1011.3 kg/m3
12543 kPa	1011.3 kg/m3
12558 kPa	1011.3 kg/m3
12577 kPa	1011.3 kg/m3
12592 kPa	1011.4 kg/m3
12607 kPa	1011.5 kg/m3
12622 kPa	1011.2 kg/m3
12640 kPa	1011.4 kg/m3
12656 kPa	1011.5 kg/m3
12674 kPa	1011.4 kg/m3
12689 kPa	1011.3 kg/m3
12705 kPa	1011.5 kg/m3
12723 kPa	1011.3 kg/m3
12738 kPa	1011.5 kg/m3
12754 kPa	1011.5 kg/m3
12768 kPa	1011.5 kg/m3
12786 kPa	1011.4 kg/m3
12800 kPa	1011.5 kg/m3
12814 kPa	1011.5 kg/m3
12831 kPa	1011.5 kg/m3
12845 kPa	1011.5 kg/m3
12862 kPa	1011.5 kg/m3
12875 kPa	1011.5 kg/m3
12889 kPa	1011.5 kg/m3
12903 kPa	1011.5 kg/m3
12919 kPa	1011.4 kg/m3
12933 kPa	1011.6 kg/m3
12947 kPa	1011.7 kg/m3
12961 kPa	1011.5 kg/m3
12978 kPa	1011.5 kg/m3
12991 kPa	1011.6 kg/m3
13005 kPa	1011.6 kg/m3
13019 kPa	1011.6 kg/m3
13036 kPa	1011.6 kg/m3
13050 kPa	1011.7 kg/m3
13064 kPa	1011.4 kg/m3
13081 kPa	1011.6 kg/m3
13095 kPa	1011.5 kg/m3
13109 kPa	1011.6 kg/m3
13126 kPa	1011.7 kg/m3
13139 kPa	1011.7 kg/m3
13156 kPa	1011.7 kg/m3
13170 kPa	1011.7 kg/m3
13185 kPa	1011.7 kg/m3
13202 kPa	1011.8 kg/m3
13216 kPa	1011.7 kg/m3
13233 kPa	1011.7 kg/m3
13247 kPa	1011.7 kg/m3
13262 kPa	1011.8 kg/m3
13276 kPa	1011.9 kg/m3
13293 kPa	1011.7 kg/m3
13308 kPa	1011.8 kg/m3
13322 kPa	1011.7 kg/m3
13340 kPa	1011.8 kg/m3
13355 kPa	1011.8 kg/m3
13372 kPa	1011.8 kg/m3
13386 kPa	1011.9 kg/m3
13401 kPa	1011.8 kg/m3
13419 kPa	1012 kg/m3
13434 kPa	1011.8 kg/m3
13448 kPa	1011.8 kg/m3
13466 kPa	1011.8 kg/m3
13481 kPa	1012 kg/m3
13496 kPa	1011.9 kg/m3
13514 kPa	1011.8 kg/m3
13529 kPa	1011.9 kg/m3
13544 kPa	1012 kg/m3
13559 kPa	1012 kg/m3
13577 kPa	1011.9 kg/m3
13592 kPa	1011.9 kg/m3
13607 kPa	1011.9 kg/m3
13625 kPa	1011.8 kg/m3
13640 kPa	1012 kg/m3
13655 kPa	1012.1 kg/m3
13669 kPa	1012 kg/m3
13687 kPa	1012.1 kg/m3
13702 kPa	1012 kg/m3
13716 kPa	1011.8 kg/m3
13735 kPa	1012 kg/m3
13750 kPa	1011.9 kg/m3
13765 kPa	1011.9 kg/m3
13782 kPa	1012.1 kg/m3
13797 kPa	1012.1 kg/m3
13810 kPa	1012.1 kg/m3
13827 kPa	1012.1 kg/m3
13842 kPa	1011.9 kg/m3
13855 kPa	1012 kg/m3
13870 kPa	1012.1 kg/m3
13883 kPa	1012.1 kg/m3
13894 kPa	1012.1 kg/m3
13906 kPa	1012 kg/m3
13920 kPa	1012.1 kg/m3
13934 kPa	1012.3 kg/m3
13949 kPa	1012.2 kg/m3
13966 kPa	1012.1 kg/m3
13981 kPa	1012.1 kg/m3
13996 kPa	1012.2 kg/m3
14013 kPa	1012.1 kg/m3
14027 kPa	1012.2 kg/m3
14042 kPa	1012.1 kg/m3
14058 kPa	1012.2 kg/m3
14073 kPa	1012.3 kg/m3
14087 kPa	1012.2 kg/m3
14104 kPa	1012.2 kg/m3
14118 kPa	1012.1 kg/m3
14133 kPa	1012.2 kg/m3
14150 kPa	1012.1 kg/m3
14164 kPa	1012.3 kg/m3
14179 kPa	1012.3 kg/m3
14196 kPa	1012.2 kg/m3
14211 kPa	1012.2 kg/m3
14225 kPa	1012.2 kg/m3
14243 kPa	1012.1 kg/m3
14257 kPa	1012.3 kg/m3
14272 kPa	1012.3 kg/m3
14289 kPa	1012.3 kg/m3
14304 kPa	1012.3 kg/m3
14320 kPa	1012.4 kg/m3
14335 kPa	1012.4 kg/m3
14350 kPa	1012.3 kg/m3
14368 kPa	1012.2 kg/m3
14382 kPa	1012.4 kg/m3
14397 kPa	1012.4 kg/m3
14415 kPa	1012.6 kg/m3
14430 kPa	1012.3 kg/m3
14448 kPa	1012.4 kg/m3
14463 kPa	1012.3 kg/m3
14478 kPa	1012.3 kg/m3
14496 kPa	1012.4 kg/m3
14511 kPa	1012.4 kg/m3
14527 kPa	1012.4 kg/m3
14542 kPa	1012.5 kg/m3
14560 kPa	1012.4 kg/m3
14575 kPa	1012.4 kg/m3
14591 kPa	1012.4 kg/m3
14609 kPa	1012.6 kg/m3
14624 kPa	1012.5 kg/m3
14640 kPa	1012.4 kg/m3
14658 kPa	1012.5 kg/m3
14674 kPa	1012.5 kg/m3
14689 kPa	1012.4 kg/m3
14708 kPa	1012.4 kg/m3
14724 kPa	1012.5 kg/m3
14739 kPa	1012.5 kg/m3
14755 kPa	1012.5 kg/m3
14774 kPa	1012.5 kg/m3
14790 kPa	1012.6 kg/m3
14805 kPa	1012.6 kg/m3
14824 kPa	1012.6 kg/m3
14840 kPa	1012.7 kg/m3
14856 kPa	1012.7 kg/m3
14875 kPa	1012.6 kg/m3
14891 kPa	1012.7 kg/m3
14907 kPa	1012.7 kg/m3
14926 kPa	1012.7 kg/m3
14942 kPa	1012.6 kg/m3
14959 kPa	1012.8 kg/m3
14974 kPa	1012.7 kg/m3
14993 kPa	1012.7 kg/m3
15008 kPa	1012.6 kg/m3
15024 kPa	1012.8 kg/m3
15042 kPa	1012.7 kg/m3
15058 kPa	1012.8 kg/m3
15074 kPa	1012.7 kg/m3
15090 kPa	1012.8 kg/m3
15108 kPa	1012.8 kg/m3
15124 kPa	1012.8 kg/m3
15140 kPa	1012.8 kg/m3
15159 kPa	1012.7 kg/m3
15175 kPa	1012.9 kg/m3
15190 kPa	1012.9 kg/m3
15209 kPa	1012.8 kg/m3
